Measurements published in US20060159776A1, “Compositions comprising components coated with a liquid impermeable but gas permeable layer, use thereof for treating cutaneous and other exocrine gland diseases” (priority 2003, published 2006).
“Also recorded” adds a separate entry of the source.

System: adults suffering from diabetes type 2
Assay: Four-week substitution trial in adults with diabetes type 2 controlled by metformin alone

Compound: CN(C)C(=N)N=C(N)N [metformin, Metformin]
- fasting plasma glucose (FPG) control (before the trial, on regular metformin 500 mg twice daily to 850 mg three times daily, five adults): below 8 mmol/l
- side-effects of taking metformin (regular metformin, metallic taste three of five, abdominal discomfort all five): metallic taste in the mouth occasionally; also recorded: occasional abdominal discomfort
